Measurements from article PMC9628888, “Engineering of Sulfolobus acidocaldarius for Hemicellulosic Biomass Utilization” (Journal of Microbiology and Biotechnology, 2022).

Biological target: T1, β-xylosidase (SSO3032) (Saccharolobus solfataricus, UniProt Q97UI4)
T1 construct: full gene cloned in pSVAmalFX-Nt6H (His6 tag)
Experiment: colorimetric pNP release at […] nm
Format: biochemical
Conditions: 1 mM pNPX, 50 mM sodium acetate pH 6.0, 90 °C, 10 min

T1 sequence (Q97UI4 entry or part of it): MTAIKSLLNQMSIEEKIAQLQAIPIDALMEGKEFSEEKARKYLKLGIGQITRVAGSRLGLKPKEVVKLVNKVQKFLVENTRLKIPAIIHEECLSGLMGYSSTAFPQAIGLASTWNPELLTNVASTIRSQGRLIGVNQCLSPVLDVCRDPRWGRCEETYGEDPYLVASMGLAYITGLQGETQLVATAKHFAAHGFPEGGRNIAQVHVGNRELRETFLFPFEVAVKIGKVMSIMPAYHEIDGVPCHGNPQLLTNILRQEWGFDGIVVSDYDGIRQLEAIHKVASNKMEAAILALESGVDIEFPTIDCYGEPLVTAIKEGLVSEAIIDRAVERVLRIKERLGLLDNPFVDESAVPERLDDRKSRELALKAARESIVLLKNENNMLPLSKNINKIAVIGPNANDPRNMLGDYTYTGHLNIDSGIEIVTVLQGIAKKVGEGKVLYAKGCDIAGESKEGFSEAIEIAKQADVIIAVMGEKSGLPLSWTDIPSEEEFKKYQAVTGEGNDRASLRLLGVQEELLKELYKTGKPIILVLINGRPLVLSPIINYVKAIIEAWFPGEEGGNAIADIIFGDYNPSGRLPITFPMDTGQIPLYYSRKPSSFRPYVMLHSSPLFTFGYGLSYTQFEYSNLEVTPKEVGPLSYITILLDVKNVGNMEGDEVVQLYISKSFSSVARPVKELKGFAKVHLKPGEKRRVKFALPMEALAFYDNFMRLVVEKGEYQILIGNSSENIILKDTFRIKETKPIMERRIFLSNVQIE

## O=[N+]([O-])c1ccc(O[C@@H]2OC[C@@H](O)[C@H](O)[C@H]2O)cc1 [pNPX]
  colorimetric pNP release at 420 nm: performed with 4-nitrophenol-β-D-xylopyranoside (pNPX) as a substrate
